Reference: ChEMBL document CHEMBL1201862, “PubChem BioAssay data set” (2004)
Calls of active or inactive are those of the source. For most assays here, no stated cut-off is given here; in the data, actives have a measured EC50 and inactives only a lower limit.

Columns and labels:
[1] = NIH-3T3 fibroblast cytotoxicity, dose response, cytotoxicity control, cell-based, fluorescence, Alamar Blue, secondary assay (AID 2327); format: functional;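 further: NIH-3T3 mouse fibroblasts cultured with fluconazole at 8 µg/mL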
[2] = luciferase reporter signal suppression in cells – H4 neuroglioma cells, luminescence, dose response (AID 1990); format: functional, cell-based
BJ [3] = assay: BJ-TERT fibroblast viability loss – cell-based, RAS-independent, luminescence, dose response (AID 1933); format: functional; conditions: Homo sapiens
[4] = Luminescence Cell-Based Dose Response HTS to Identify Inhibitors of 5'UTR Stem-Loop Driven Prion Protein mRNA Translation in H4 Neuroglioblastoma Cells. [Related pubchem assays: 1827 (Project Summary), 1813 (Primary HTS)]; format: functional
[5] = alpha-synuclein stem-loop luciferase translation blockers – H4 neuroglioma cells, luminescence, confirmation (AID 1988); format: functional, cell-based
BJ [6] = assay: cells; format: functional, cell-based; conditions: Homo sapiens
[7] = fluconazole-exposed Candida albicans growth modulators – fluorescence, retest, confirmation (AID 2467); format: functional, cell-based
BJ [8] = assay: BJ-TERT-LT-ST fibroblast viability loss – cell-based, RAS-independent, luminescence, dose response (AID 1935); format: functional; conditions: Homo sapiens;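 further: BJ fibroblasts immortalized with TERT plus LT and ST oncogenes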
[9] = DRD fibroblast viability loss – cell-based, non-viral oncogenic, luminescence, dose response (AID 1934); format: functional; conditions: Homo sapiens
Hexokinase HKDC1 = molecular target: T1, Hexokinase HKDC1 (Homo sapiens, UniProt Q2TB90); assay: inhibition of HKDC1 glucose phosphorylation – biochemical, W721R variant, dose response (AID 504729); format: functional
T1 sequence (Q2TB90 whole entry): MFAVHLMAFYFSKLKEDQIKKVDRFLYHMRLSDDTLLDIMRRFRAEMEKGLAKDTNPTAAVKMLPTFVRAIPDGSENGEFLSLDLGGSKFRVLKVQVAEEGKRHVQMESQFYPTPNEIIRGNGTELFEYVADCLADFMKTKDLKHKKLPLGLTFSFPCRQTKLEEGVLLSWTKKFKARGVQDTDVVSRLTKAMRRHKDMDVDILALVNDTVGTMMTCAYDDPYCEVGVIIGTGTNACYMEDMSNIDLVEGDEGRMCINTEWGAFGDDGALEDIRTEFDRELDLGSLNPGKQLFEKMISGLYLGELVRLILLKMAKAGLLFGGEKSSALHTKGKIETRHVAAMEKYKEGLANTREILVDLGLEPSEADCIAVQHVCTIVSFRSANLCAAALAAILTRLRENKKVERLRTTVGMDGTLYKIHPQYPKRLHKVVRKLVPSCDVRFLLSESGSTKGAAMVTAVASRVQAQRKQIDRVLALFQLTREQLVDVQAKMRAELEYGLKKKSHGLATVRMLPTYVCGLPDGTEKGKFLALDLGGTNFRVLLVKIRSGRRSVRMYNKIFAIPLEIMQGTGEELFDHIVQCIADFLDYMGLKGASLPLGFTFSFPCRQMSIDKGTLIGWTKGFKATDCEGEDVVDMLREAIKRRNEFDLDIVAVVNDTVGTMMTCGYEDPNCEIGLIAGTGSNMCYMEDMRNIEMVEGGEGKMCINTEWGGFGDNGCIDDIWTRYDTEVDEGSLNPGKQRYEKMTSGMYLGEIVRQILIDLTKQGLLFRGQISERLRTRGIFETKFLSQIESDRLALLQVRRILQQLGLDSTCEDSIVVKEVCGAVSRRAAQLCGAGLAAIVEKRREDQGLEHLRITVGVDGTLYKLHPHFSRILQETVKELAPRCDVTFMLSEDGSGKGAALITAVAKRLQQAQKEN

[10] = molecular target: T2, Microphthalmia-associated transcription factor (Homo sapiens, UniProt O75030); assay: reducers of TRPM1 reporter luminescence, concentration series – cell-based, SK-MEL-5, cherry-picked, set 3, MITF inhibitor project, dose response (AID 493073); format: functional;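 further: SK-MEL-5 melanoma cells with luciferase driven by the MITF target TRPM1 promoter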
T2 sequence (O75030 whole entry): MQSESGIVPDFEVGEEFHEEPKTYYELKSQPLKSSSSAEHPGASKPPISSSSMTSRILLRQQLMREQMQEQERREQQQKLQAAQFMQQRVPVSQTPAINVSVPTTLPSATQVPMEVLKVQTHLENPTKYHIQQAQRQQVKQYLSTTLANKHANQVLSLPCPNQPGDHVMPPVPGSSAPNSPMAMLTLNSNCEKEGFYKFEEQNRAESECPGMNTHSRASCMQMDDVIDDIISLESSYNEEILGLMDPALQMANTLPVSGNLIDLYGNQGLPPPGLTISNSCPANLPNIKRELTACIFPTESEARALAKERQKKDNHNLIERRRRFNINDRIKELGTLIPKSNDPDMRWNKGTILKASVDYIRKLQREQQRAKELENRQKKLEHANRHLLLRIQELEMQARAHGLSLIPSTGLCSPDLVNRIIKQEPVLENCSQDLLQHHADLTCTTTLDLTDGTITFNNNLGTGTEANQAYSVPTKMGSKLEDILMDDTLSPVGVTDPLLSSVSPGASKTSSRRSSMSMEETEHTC

[11] = molecular target: T3, Replicative DNA helicase DnaB (Mycobacterium tuberculosis, UniProt P9WMR3); assay: DnaB intein splicing inhibitors, dose response, biochemical, cell-free fluorescence (AID 449749); format: functional
T3 sequence (P9WMR3 whole entry): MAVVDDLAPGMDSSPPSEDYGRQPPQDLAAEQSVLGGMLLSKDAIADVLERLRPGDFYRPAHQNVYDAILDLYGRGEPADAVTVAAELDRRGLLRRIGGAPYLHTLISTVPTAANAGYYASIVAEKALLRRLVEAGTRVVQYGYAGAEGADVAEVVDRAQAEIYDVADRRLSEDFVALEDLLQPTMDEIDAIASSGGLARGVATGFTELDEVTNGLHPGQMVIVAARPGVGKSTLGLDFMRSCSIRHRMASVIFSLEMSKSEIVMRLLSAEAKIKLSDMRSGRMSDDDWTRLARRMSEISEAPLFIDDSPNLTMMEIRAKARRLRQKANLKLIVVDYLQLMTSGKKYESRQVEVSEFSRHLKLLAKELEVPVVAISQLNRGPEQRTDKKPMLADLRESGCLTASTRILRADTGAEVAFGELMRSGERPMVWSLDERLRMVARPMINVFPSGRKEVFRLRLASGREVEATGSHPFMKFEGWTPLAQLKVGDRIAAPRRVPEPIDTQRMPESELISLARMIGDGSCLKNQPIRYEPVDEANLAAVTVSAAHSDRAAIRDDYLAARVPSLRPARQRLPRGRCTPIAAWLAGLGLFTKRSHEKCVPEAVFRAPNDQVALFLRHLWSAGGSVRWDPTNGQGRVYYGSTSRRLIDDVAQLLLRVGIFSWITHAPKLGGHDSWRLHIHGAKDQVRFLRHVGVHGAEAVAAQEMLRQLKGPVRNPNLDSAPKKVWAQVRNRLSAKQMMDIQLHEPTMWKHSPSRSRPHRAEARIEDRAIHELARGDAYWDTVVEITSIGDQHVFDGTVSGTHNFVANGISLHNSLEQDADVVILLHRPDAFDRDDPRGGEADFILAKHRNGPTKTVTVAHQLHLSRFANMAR

Protein RecA = molecular target: T4, Protein RecA (Mycobacterium tuberculosis, UniProt P9WHJ3); assay: Fluorescence Cell-Free Homogeneous Dose Retest to Identify Inhibitors of RecA-Intein Splicing Activity. [Related pubchem assays (depositor defined):AID2097, AID2223, AID489010, AID492950]; format: functional
T4 sequence (P9WHJ3 whole entry): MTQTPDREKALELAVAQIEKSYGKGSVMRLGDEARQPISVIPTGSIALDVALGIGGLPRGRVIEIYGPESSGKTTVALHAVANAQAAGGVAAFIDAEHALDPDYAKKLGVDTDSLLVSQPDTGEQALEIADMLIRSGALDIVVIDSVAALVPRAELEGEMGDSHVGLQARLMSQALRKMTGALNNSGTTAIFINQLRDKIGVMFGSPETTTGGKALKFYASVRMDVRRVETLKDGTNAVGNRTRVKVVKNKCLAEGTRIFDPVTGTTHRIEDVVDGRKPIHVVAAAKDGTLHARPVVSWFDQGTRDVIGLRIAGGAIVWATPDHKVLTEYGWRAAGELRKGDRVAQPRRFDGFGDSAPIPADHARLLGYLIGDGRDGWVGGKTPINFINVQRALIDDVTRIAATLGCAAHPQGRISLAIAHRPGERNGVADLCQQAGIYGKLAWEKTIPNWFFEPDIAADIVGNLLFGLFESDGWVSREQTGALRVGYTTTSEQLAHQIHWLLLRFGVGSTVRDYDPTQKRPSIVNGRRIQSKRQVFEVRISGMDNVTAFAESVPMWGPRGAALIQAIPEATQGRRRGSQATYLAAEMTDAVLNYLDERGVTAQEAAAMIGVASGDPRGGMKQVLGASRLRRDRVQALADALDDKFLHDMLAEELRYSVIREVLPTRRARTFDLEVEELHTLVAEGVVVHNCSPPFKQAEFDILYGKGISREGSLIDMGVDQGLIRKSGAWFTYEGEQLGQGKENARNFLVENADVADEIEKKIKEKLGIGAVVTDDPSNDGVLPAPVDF

Compound: CCOc1ccc(-n2c(C)cc(C(=O)CCl)c2C)cc1
- EC50 [1]: 4.21 µM (inconclusive)
- EC50 [2]: > 120 µM (not active)
- EC50 (BJ [3]): 4.29 µM (active)
- EC50 [4]: 15 µM (active)
- EC50 [5]: > 120 µM (not active)
- EC50 (BJ [6]): 4.84 µM (active)
- EC50 [7]: > 38 µM (not active)
- EC50 (BJ [8]): 9.67 µM (inconclusive)
- EC50 [9]: 9.56 µM (active)
- IC50 (Hexokinase HKDC1): 47.7 µM (inactive)
- AC50 [10]: 4.59 µM (active)
- AC50 [11]: 8.96 µM (active)
- EC50 (Protein RecA): 11.7 µM (active)
